Experimental data taken from patent publication US20240389592A1, “FUNGICIDAL COMPOSITIONS” (SYNGENTA CROP PROTECTION AG, priority 2021, published 2024).

Assays:
[1] = test system: Glomerella lagenarium syn. Colletotrichum lagenarium (Anthracnose of cucurbits); assay: Glomerella lagenarium liquid culture growth inhibition (microtiter plate, PDB); type: cell-based; details: single active ingredient, 72 hrs
Source text: A synergistic effect exists whenever the action of an active ingredient combination is greater than the sum of the actions of the individual components. The action to be expected E for a given active ingredient combination obeys the so-called COLBY formula and can be calculated as follows (COLBY, S. R. “Calculating synergistic and antagonistic responses of herbicide combination”. Weeds, Vol. 15, pages 20-22; 1967): • ppm=milligrams of active ingredient (=a.i.) per liter of spray mixture • X=% action by active ingredient A) using p ppm of active ingredient • Y=% action by active ingredient B) using q ppm of active ingredient. According to COLBY, the expected (additive) action of active ingredients A)+B) using p+q ppm of active ingredient is If the action actually observed (O) is greater than the expected action (E), then the action of the combination is super-additive, i.e. there is a synergistic effect. In mathematical terms, synergism corresponds to a positive value for the difference of (O-E). In the case of purely complementary addition of activities (expected activity), said difference (O-E) is zero. A negative value of said difference (O-E) signals a loss of activity compared to the expected activity. Glomerella Lagenarium Syn. Colletotrichum lagenarium (Anthracnose of Cucurbits): Conidia of the fungus from cryogenic storage were directly mixed into nutrient broth (PDB potato dextrose broth). A DMSO solution of the test compounds was placed into a microtiter plate (96-well format) and the nutrient broth containing the fungal spores was added to it. The test plates were incubated at 24 C and the inhibition of growth was determined photometrically after 72 hrs at 620 nm.

[2] = test system: Phakopsora pachyrhizi (Asian soybean rust); assay: Phakopsora pachyrhizi soybean leaf disk test after whole plant spray; type: in vivo; details: single active ingredient, evaluation 11 to 14 days after inoculation
Source text: (§1) A synergistic effect exists whenever the action of an active ingredient combination is greater than the sum of the actions of the individual components. The action to be expected E for a given active ingredient combination obeys the so-called COLBY formula and can be calculated as follows (COLBY, S. R. “Calculating synergistic and antagonistic responses of herbicide combination”. Weeds, Vol. 15, pages 20-22; 1967): • ppm=milligrams of active ingredient (=a.i.) per liter of spray mixture • X=% action by active ingredient A) using p ppm of active ingredient • Y=% action by active ingredient B) using q ppm of active ingredient.
(§2) According to COLBY, the expected (additive) action of active ingredients A)+B) using p+q ppm of active ingredient is
(§3) If the action actually observed (O) is greater than the expected action (E), then the action of the combination is super-additive, i.e. there is a synergistic effect. In mathematical terms, synergism corresponds to a positive value for the difference of (O-E). In the case of purely complementary addition of activities (expected activity), said difference (O-E) is zero. A negative value of said difference (O-E) signals a loss of activity compared to the expected activity.
Phakopsora pachyrhizi (Soybean Rust):
Whole soybean plants are treated with the recited active ingredients 4 weeks after planting. 1 day after spraying leaf disks are cut from the first trifoliate leaf. Five repetitions at each rate are conducted. The leaf disks are inoculated with Phakopsora pachyrhizi (Asian soybean rust) one day after treatment. Evaluation of the leaf disks is conducted 11 to 14 days after inoculation and the activity is derived from the relation of the treated vs untreated, infested check. The rates of the active ingredients used are given in Table as g active ingredient (a.i.)/ha.

[3] = test system: Septoria tritici (leaf blotch); assay: Septoria tritici liquid culture growth inhibition (microtiter plate, PDB); type: cell-based; details: single active ingredient, 72 hrs
Source text: as §1, §2, §3
Septoria tritici (Leaf Blotch):
Conidia of the fungus from cryogenic storage were directly mixed into nutrient broth (PDB potato dextrose broth). A DMSO solution of the test compounds was placed into a microtiter plate (96-well format) and the nutrient broth containing the fungal spores was added to it. The test plates were incubated at 24 C and the inhibition of growth was determined photometrically after 72 hrs.

| Compound | Observed Activity (%) ([1]; 0.74 g ai/ha) | Observed Activity (%) ([1]; 2.22 g ai/ha) | Observed Activity (%) ([1]; 6.66 g ai/ha) | Observed Activity (%) ([1]; 20 g ai/ha, 24 C, 620 nm) | Observed Activity (%) ([2]; 0.1 g ai/ha) | Observed Activity (%) ([2]; 0.3 g ai/ha) | Observed Activity (%) ([2]; 0.9 g ai/ha) | Observed Activity (%) ([1]; 10 g ai/ha) | inhibition at 0.1 g/ha ([2]; Phakopsora pachyrhizi, foliar, 0.1 g ai/ha, read-out: Observed Activity (%)) [%] | Observed Activity (%) ([3]; 10 g ai/ha) | Observed Activity (%) ([3]; 20 g ai/ha, 24 C) | Observed Activity (%) ([3]; 0.0246 g ai/ha) | Observed Activity (%) ([3]; 0.074 g ai/ha) | Observed Activity (%) ([3]; 0.22 g ai/ha) |
| --- | --- | --- | --- | --- | --- | --- | --- | --- | --- | --- | --- | --- | --- | --- |
| O=C(Nc1ccccc1F)c1ccc(-c2noc(C(F)(F)F)n2)cc1 [Flufenoxadiazam, flufenoxadiazam] | 20 | 20 | 50 | 90 | 3 | 5 | 31 | – | – | – | – | – | – | – |
| CCC(=O)Oc1c(OC)ccnc1C(=O)N[C@@H](C)C(=O)O[C@@H](C)[C@@H](C)c1ccccc1C [Metarylpicoxamid, metarylpicoxamid] | – | – | – | – | 0 | 51 | – | – | – | – | – | – | – | – |
| CCOC(=O)c1cnn(Cc2ccc(O/C=C(\OCC)C(F)(F)F)cc2)c1 [Compound A-1.2, ethyl 1-[[4-[[(1Z)-2-ethoxy-3,3,3-trifluoro-1-propen-1-yl]oxy]phenyl]methyl]-1H-pyrazole-4-carboxylate] | – | – | – | 0 | – | – | – | 0 | 16 | 0 | 0 | – | – | – |
| inpyrfluxam | – | – | – | – | 13 | 25 | 68 | – | – | – | – | 20 | 70 | 90 |
